Patent publication US11666640B2, “Glucose oxidase compositions as a neonate anticonvulsant” (PENN STATE RESEARCH FOUNDATION, priority 2018, dated 2023)
“Also recorded” adds a separate entry of the source.

Experiments:
[1] = test system: GABA-induced neuronal activity; assay: Cell-attached recording of spike firing elicited by isoguvacine in CA3 pyramidal neurons; format: cell-based, mouse; conditions: P8-9, isoguvacine 10 μM, 30 s
Procedure: Besides EGABA, the effects of different drugs on GABA-induced neuronal activity during epileptogenesis were investigated in neonatal animals (e.g., P8-9). To accurately measure GABA-induced neuronal activity, cell-attached recordings monitored spike firing elicited by local application of the GABAA-R agonist isoguvacine (10 μM, 30 s). Tyzio et al., “Maternal oxytocin triggers a transient inhibitory switch in GABA signaling in the fetal brain during delivery” Science 314:1788-1792 (2006). […] FIG. 16K, control, (n=32). […] FIG. 16K, 0 Mg^2+ (n=19). […] FIG. 16K; 0 Mg^2++Bum (n=19); and 0 Mg^2++VU (n=21). […] FIG. 16K; 0 Mg^2++NaGcA (n=18).

neonatal seizures = conditions: infant babies, clinical trial (Pressler et al.); cited from earlier work
[2] = test system: GABAA-R reversal potential (EGABA); assay: Gramicidin-perforated whole-cell recording of GABAA-R reversal potential (EGABA) in CA3 pyramidal neurons; format: cell-based, mouse; conditions: for positive EGABA shift induced by 0 Mg2+ aCSF: neonatal CA3 neurons; for EGABA in 0 Mg2+ aCSF: neonatal P8-P9, 0 Mg2+ aCSF; for EGABA in 0 Mg2+ aCSF / EGABA in normal aCSF: bumetanide 10 μM, VU0240551 10 μM, NaGcA 20 mM; for EGABA in normal aCSF: neonatal P8-P9
Procedure: To further test this idea, the GABAA-R reversal potential (EGABA), which governs GABA excitatory versus inhibitory function, was directly measured using gramicidin-perforated whole-cell recordings in neonatal mouse brain slices (e.g., P8-P9). As expected, epileptiform activity induced a large depolarizing shift in EGABA after treating hippocampal slices with 0 Mg^2+ aCSF for 1 h (aCSF: −59.2±2.0 mV, n=13; 0 Mg^2+: −48.2±1.1 mV, n=10). FIG. 16D. Treatment with bumetanide (Bum, 10 μM), a specific blocker for NKCC1 at low concentrations, induced a hyperpolarizing shift in EGABA (blue line) as compared to a control EGABA (dashed line). […]. […] Kaila et al., “Cation-chloride cotransporters in neuronal development, plasticity and disease” Nature Reviews. Neuroscience 15:637-654 (2014); Dzhala et al., “NKCC1 transporter facilitates seizures in the developing brain” Nature Medicine 11:1205-1213 (2005); and Loscher et al., “Cation-chloride cotransporters NKCC1 and KCC2 as potential targets for novel antiepileptic and antiepileptogenic treatments” Neuropharmacology 69:62-74 (2013). […] FIG. 16E, yellow line; Bum, −68.0±1.7 mV (n=9); 0 Mg^2++Bum, −50.2±1.4 mV (n=9); (p<0.002).

[3] = test system: KA induced neonatal seizure; assay: KA-induced neonatal seizure, in vivo EEG recording; parameters: species or system rat; conditions: for reduction of relative EEG power: last 30 min of a 2-hr recording period after KA injection, neonatal
Procedure: For example, neonatal rats were administered gluconate to determine the effect on in vivo epileptic seizures in neonatal and adult animals. […] FIGS. 14A and 14B; Dzhala et al., “NKCC1 transporter facilitates seizures in the developing brain” Nature Medicine 11:1205-1213 (2005). […] FIGS. 14C and 14D.
To test the in vivo anti-epilepsy effects of gluconate in neonatal and adult rodents, P8-12 Sprague-Dawley rats or 2-month old male C57BL/6 mice were deeply anesthetized with pentobarbital sodium (50 mg/kg for neonatal rat and 100 mg/kg for adult mice, intraperitoneal injection). Two stainless steel screws (1 mm in diameter) were inserted in the skull above the cortex as EEG recording electrodes, one ground electrode as well as one reference electrode were located +1.8 mm anterior to bregma, ±0.5 mm lateral to the midline, and 1 mm below the cortical surface. All electrodes were attached to a micro-connector and fixed onto the skull with dental cement. After surgery, neonatal rats were returned to their mothers and allowed to recover for 2 days prior to subsequent EEG recording. The adult mice were single housed in order to prevent damage of the implanted electrodes and allowed to recover at least 5 days before EEG recording.
The baseline of EEG was recorded for 0.5-1 hr to allow the animal to adapt to the environment. Kainic acid (2 mg/kg) was administered intraperitoneally (i.p.) for neonatal epilepsy induction. D-gluconic acid sodium salt (2 g/kg) or 0.9% saline was injected i.p. 10 min after KA administration. Pentylenetetrazol (PTZ) was administered intraperitoneally for inducing a stable epileptic burst activity in adult mice, and D-gluconic acid sodium salt (1 g/kg and 2 g/kg) or 0.9% saline was injected i.p. 10 min before PTZ administration. Epileptiform activity was monitored for 1 hr after PTZ injection. Qian et al., “Epileptiform response of CA1 neurones to convulsant stimulation by cyclothiazide, kainic acid and pentylenetetrazol in anaesthetized rats” Seizure 20:312-319 (2011). After the experiment, animals were injected with diazepam to protect the animals from recurrent epilepsy.
Power was calculated in 1-min time windows by integrating the power of dominant frequency bands from 1 to 100 Hz (EEG band).

CLC-3 Cl− channels = biological target: T1, CLC-3 Cl− channels (Mus musculus, UniProt P51791); assay: Voltage-dependent outward rectifying Cl− currents in CA3 pyramidal neurons of hippocampal slices; format: cell-based; conditions: P8-12 neonatal mice; 20 mM NaGcA, 10 mM Mg(GcA)2, 20 mM gluconic acid
T1 construct: CA3 pyramidal neurons of hippocampal slices from neonatal mice; from tissue; host or cells: acute hippocampal slices (CA3 pyramidal neurons), C57BL/6 mice
T1 sequence (P51791 1-818): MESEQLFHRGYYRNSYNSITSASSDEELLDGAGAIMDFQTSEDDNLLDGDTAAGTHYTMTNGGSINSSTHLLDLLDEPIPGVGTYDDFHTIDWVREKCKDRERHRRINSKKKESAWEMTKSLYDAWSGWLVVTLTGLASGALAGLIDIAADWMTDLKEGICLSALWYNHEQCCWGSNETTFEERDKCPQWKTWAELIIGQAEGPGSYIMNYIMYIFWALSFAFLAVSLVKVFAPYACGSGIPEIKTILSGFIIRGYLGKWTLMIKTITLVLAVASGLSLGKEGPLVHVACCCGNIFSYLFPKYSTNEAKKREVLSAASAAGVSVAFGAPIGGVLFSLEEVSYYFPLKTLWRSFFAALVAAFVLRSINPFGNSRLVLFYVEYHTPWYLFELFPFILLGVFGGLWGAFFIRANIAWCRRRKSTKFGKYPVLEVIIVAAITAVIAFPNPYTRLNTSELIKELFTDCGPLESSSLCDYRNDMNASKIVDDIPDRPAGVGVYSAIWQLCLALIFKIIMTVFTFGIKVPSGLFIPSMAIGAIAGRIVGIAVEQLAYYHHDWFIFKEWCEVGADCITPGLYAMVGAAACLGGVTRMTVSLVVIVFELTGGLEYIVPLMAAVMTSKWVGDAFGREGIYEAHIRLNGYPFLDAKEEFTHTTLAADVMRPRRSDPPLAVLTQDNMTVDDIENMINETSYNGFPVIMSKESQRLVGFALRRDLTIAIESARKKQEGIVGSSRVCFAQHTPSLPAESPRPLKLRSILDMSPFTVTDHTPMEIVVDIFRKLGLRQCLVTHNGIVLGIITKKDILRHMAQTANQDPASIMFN

Cl− channels = assay: Cl− current recording in cultured cortical neurons; format: cell-based, mouse; conditions: blocker 100 μM
[4] = test system: cultured cortical neurons; assay: Epileptiform burst activity in cultured cortical neurons (whole-cell patch-clamp); format: cell-based, mouse; conditions: CTZ 10 μM, 24 hrs, blocker 100 μM
Procedure: Mouse cortical neurons were prepared from newborn C57BL/6 mice as previously described. Qi et al., “Cyclothiazide induces robust epileptiform activity in rat hippocampal neurons both in vitro and in vivo” The Journal Of Physiology 571:605-618 (2006). Briefly, the newborn mouse cerebral cortices were dissected out in ice-cold HEPES-buffered saline solution, washed and digested with 0.05% trypsin-EDTA at 37° C. for 20 min. After deactivation of trypsin with serum-containing medium, cells were centrifuged, resuspended, and seeded on a monolayer of cortical astrocytes at a density of 10,000 cells/cm^2 in 24-well plates. The neuronal culture medium contained MEM (500 ml, Invitrogen), 5% fetal bovine serum (Atlanta Biologicals), 10 ml B-27 supplement (Invitrogen), 100 mg NaHCO3, 2 mM Glutamax (Invitrogen), and 25 units/ml penicillin & streptomycin. AraC (4 μM, Sigma) was added to inhibit the excessive proliferation of astrocytes. Cell cultures were maintained in a 5% CO2-humidified incubator at 37° C. for 14-21 days.
The cultured neurons were placed in the recording chamber with continuous perfusion of the bath solution consisting of (mM): 128 NaCl, 10 Glucose, 25 HEPES, 5 KCl, 2 CaCl2, 1 MgSO4, pH 7.3 adjusted with NaOH, and osmolarity ˜300 mOsm. For recording spontaneous firing under current clamp mode, pipettes were filled with an internal solution containing (in mM): 125 K-gluconate, 5 Na-phosphocreatine, 5 EGTA, 10 KCl, 10 HEPES, 4 Mg-ATP, 0.3 Na-GTP, 280-290 mOsm, pH 7.3 adjusted with KOH. Epileptiform activity in cultured neurons was induced either by 10 μM CTZ for 24 h, or 1 μM KA for 2 h, or 50 μM 4-AP for 2 h. The burst activity was defined as previously described. Qi et al., “Cyclothiazide induces robust epileptiform activity in rat hippocampal neurons both in vitro and in vivo” The Journal Of Physiology 571:605-618 (2006). In brief, at least five consecutive action potentials overlaying on top of the large depolarization shift (≥10 mV depolarization and ≥300 ms in duration).

hippocampal slices = assay: Field potential recording of epileptiform activity in hippocampal slices (CA3 pyramidal layer); format: cell-based, mouse; conditions: 100 μm (FIG. 10)

## CCCCNc1cc(C(=O)O)cc(S(N)(=O)=O)c1Oc1ccccc1 [bumetanide]
[1]
  spike activity elicited by isoguvacine after 0 Mg2+ treatment: did not change
Neonatal seizures
  effect in treating neonatal seizure (clinical trial): very limited effect
  side effects (clinical trial): severe side effects
[2]
  positive EGABA shift induced by 0 Mg2+ aCSF: did not abolish
  EGABA in 0 Mg2+ aCSF: −50.2±1.4 mV
  EGABA in normal aCSF: −68.0±1.7 mV
[3]; P10-12, KA 2 mg/kg i.p., drug i.p. 10 min after KA: NaGcA 2 g/kg, phenobarbital 25 mg/kg, bumetanide 2 mg/kg
  epileptic seizure (burst) activity in EEG: not as potent as gluconate
[3]
  reduction of relative EEG power: 54.3%

## CCC1(c2ccccc2)C(=O)NC(=O)NC1=O [phenobarbital, reference compound]
[3]
  reduction of relative EEG power: 35.5%

## O=C(O)[C@H](O)[C@@H](O)[C@H](O)[C@H](O)CO [gluconic acid]
CLC-3 Cl− channels
  Cl− current inhibition by gluconic acid with various counter ions: equivalent Cl− current inhibition

## Cc1csc(NC(=O)CSc2ccc(-c3ccccc3)nn2)n1 [VU0240551]
[1]
  spike activity elicited by isoguvacine after 0 Mg2+ treatment: did not change
[2]
  positive EGABA shift induced by 0 Mg2+ aCSF: no effect
  EGABA in 0 Mg2+ aCSF: −48.9±1.3 mV
  EGABA in normal aCSF: −60.8±1.9 mV

## O=S(=O)([O-])c1cc(N=C=S)ccc1C=Cc1ccc(N=C=S)cc1S(=O)(=O)[O-].[Na+].[Na+] [DIDS, 4,4′-Diisothiocyanato-2,2′-stilbenedisulfonic acid disodium salt, reference compound]
Cl− channels; disodium salt
  Cl− currents (inhibition by classic Cl− channel blockers): significantly suppressed; also recorded: persistent inhibition
[4]; disodium salt
  epileptiform activity induced by CTZ: significantly inhibited; also recorded: potently inhibited

## O=C(O)c1cc([N+](=O)[O-])ccc1NCCCc1ccccc1 [NPPB, 5-Nitro-2-(3-phenylpropylamino) benzoic acid, reference compound]
Hippocampal slices
  epileptic activity in neonatal hippocampal slices (other Cl− channel blockers): inhibit neonatal seizures
Cl− channels
  Cl− currents (inhibition by classic Cl− channel blockers): significantly suppressed; also recorded: inhibited
[4]
  epileptiform activity induced by CTZ: significantly inhibited; also recorded: potently inhibited

## O=C(O)c1cccnc1Nc1cccc(C(F)(F)F)c1 [NFA, niflumic acid, reference compound]
Hippocampal slices
  epileptic activity in neonatal hippocampal slices (other Cl− channel blockers): inhibit neonatal seizures

## magnesium gluconate
CLC-3 Cl− channels
  Cl− current inhibition by gluconic acid with various counter ions: equivalent Cl− current inhibition
